Laboratory results published in US20020102262A1, “Collagen binding protein compositions and methods of use” (priority 1996, published 2002).

Tests used:
αCBD(151-297) IgG [1] = assay: ELISA reactivity of αCBD(151-297) IgG with eight 25-amino-acid synthetic CBD peptides; assay type: binding, rabbit; conditions: 25-amino-acid synthetic peptides as targets
Method: Rabbits were immunized with […] as described. Sera were also collected prior to immunization and tested for reactivity to CBD(151-297). The reactivity of the antiserum with different segments of CBD(151-297) was tested in an ELISA using a series of eight 25-amino-acid long synthetic peptides with partially overlapping sequences as targets. Purified IgG reacted strongly with peptides 2, 3, 5, 6, and 7 and weakly with peptides 1, 4, and 8. When preimmune IgG was tested with the CBD peptides, little reaction could be detected. The relative immunological reactivity of the different peptides correlated closely with their antigenic index using the algorithm of Jameson and Wolf (1988).

S. aureus = assay: Inhibition of binding of 125I-labeled type II Col to S. aureus cells; design: species or system Staphylococcus aureus
Method: Purified αCBD(151-297) IgG inhibited the binding of S. aureus to ^125I-labeled Col in a dose-dependent manner.
(§1) To further investigate the interaction between peptide CBD4 and αCBD(151-297) IgG and its affect on Col binding, a fixed concentration of the antibody was incubated with an increasing amount of peptide CBD4. […] Thus, a relatively small reduction in inhibition could be easily detected.
Peptide CBD7 which reacted strongly with αCBD(151-297) IgG in the ELISA assay was also tested. […] Five μM CBD4 inhibited binding by over 50%.
To identify residues within CBD4 necessary for Col binding synthesized several smaller overlapping peptides were synthesized. A series of peptides that contained a 2 amino-terminal residues and one peptide that contained a 2 amino acid deletion at the carboxyl terminus were made. The peptides (10 μM) were assayed for their ability to inhibit the binding of ^1251I-labeled Col to S. aureus. Peptide CBD4 inhibited Col binding by 76%, whereas all peptides containing amino-terminal truncations had little activity at the concentration tested.

αCBD(151-297) IgG [2] = assay: Neutralization of the inhibitory activity of αCBD(151-297) IgG by synthetic CBD peptides; assay type: binding, rabbit
Method: The different synthetic CBD peptides described above and shown to react with the αCBD(151-297) IgG were assayed for their potential to neutralize the inhibitory activity of the antibody. The αCBD(151-297) IgG (12 μg) was preincubated with a single dose (100 μg) of each peptide in step one. The S. aureus cells were then added and the preincubation continued. Finally, the ^125I-labeled type II Col was added. Peptide CBD4 neutralized 68% of αCBD(151-297) IgG inhibitory activity, while the other peptides tested had little or no effect. […] Although other peptide sequences were more immunogenic than CBD4, the antibodies recognizing the corresponding epitopes were not inhibitory.
as §1

[3] = system: S. aureus strain Phillips; assay: Mouse sepsis model, active immunization, intravenous challenge with S. aureus expressing CBP; assay type: in vivo, mice
Excerpt: Gram-positive bacteria related sepsis is on the increase. In fact between one-third and one-half of all cases of sepsis are caused by gram-positive bacteria, particularly S. aureus and S. epidermidis. In the United States, it can be estimated that over 200,000 patients will develop gram-positive related sepsis this year. […] Mice were immunized subcutaneously with either M55 or a control antigen (bovine serum albumin) and then challenged intravenously with S. aureus. Eighty-three percent (35/42) of the mice immunized with M55 survived compared to only 27% of the BSA immunized mice (12/45). This is a compilation of 3 separate studies.
Day -31: 100μg/mouse of a CBP Epitope (i.e. M17, M31, or M55) or BSA emulsified with Freund's Complete adjuvant (Difco Laboratories) as a control.
Day -18: 100μg/mouse of a CBP Epitope (ie. M17, M31, or M55) or BSA dissolved in sterile phosphate buffered saline (PBS)
Day -7: 100μg/mouse of a CBP Epitope (i.e. M17, M31, or M55) or BSA dissolved in PBS
Day 0: inoculate intravenously S. aureus strain Phillips (which expresses CBP) (Dose: 2.8×10^7 cfu/mouse)
Day 14: end of study; all surviving mice were euthanized.

[4] = system: strain of S. aureus that does not express the Col-binding MSCRAMM; assay: Mouse sepsis control study, challenge with S. aureus not expressing the Col-binding MSCRAMM; assay type: in vivo; conditions: immunized mice, challenge strain without Col-binding MSCRAMM
Excerpt: The mortality in the M55 group was 50% compared to 30% in the BSA group.

M55 = M55 (Staphylococcus aureus, UniProt Q53654); conditions: animals immunized with M55 and infected with a sub-lethal dose S. aureus
Sequence of M55 (Q53654 18-529, looked up, natural form): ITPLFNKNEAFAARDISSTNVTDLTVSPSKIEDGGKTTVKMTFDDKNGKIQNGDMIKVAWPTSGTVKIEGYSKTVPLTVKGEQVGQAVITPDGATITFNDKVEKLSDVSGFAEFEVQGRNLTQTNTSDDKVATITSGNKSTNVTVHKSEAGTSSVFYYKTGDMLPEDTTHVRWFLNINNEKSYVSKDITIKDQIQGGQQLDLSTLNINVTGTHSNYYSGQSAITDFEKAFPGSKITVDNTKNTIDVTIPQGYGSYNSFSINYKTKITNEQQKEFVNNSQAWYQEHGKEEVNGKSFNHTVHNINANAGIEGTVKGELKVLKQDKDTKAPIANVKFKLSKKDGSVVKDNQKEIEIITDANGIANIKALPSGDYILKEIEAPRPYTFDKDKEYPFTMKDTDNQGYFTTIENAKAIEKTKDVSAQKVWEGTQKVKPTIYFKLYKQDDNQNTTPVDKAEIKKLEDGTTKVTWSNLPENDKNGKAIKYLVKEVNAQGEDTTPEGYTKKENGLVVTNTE
Method: Serum level of specific antibodies against the collagen adhesion peptide M55 was measured by an enzyme-linked immunosorbent assay (ELISA). 96-well microplates (Nunc) were coated overnight at 4° C. with 2 μg/ml of M55 peptide. Blocking was done with 0.5% ovalbumin (Sigma Chemical Co., St. Louis, MO) dissolved in 0.05 M Tris (pH 7.7). Sera, biotinylated antibodies, the ExtrAvidin-peroxidase (Sigma) were all diluted in 0.05 M Tris (pH7.4)-0.015 M NaCl. The plates were incubated overnight at 4° C. with sera, washed and incubated stepwise with biotinylated goat anti-mouse IgG antibody (Jackson Immuno Research Laboratories, Inc., West Grove, PA), ExtrAvidin-peroxidase (0.5 μg/ml; Sigma) and ABTS substrate. The A405 was measured in a Titertec Multiscan photometer (Flow Laboratories, McLean, Va.). […] OVA was used as control solid antigen.

[5] = subcutaneous immunization, intravenous challenge, compilation of 3 separate studies

| Substance | reactivity with purified αCBD(151-297) IgG in ELISA (αCBD(151-297) IgG [1]) | inhibition of 125I-Col binding to S. aureus (S. aureus; Five μM peptide incubated with 125I-Col before S. aureus) | direct inhibition of 125I-Col binding to S. aureus (S. aureus; increasing amounts of peptide preincubated with 125I-Col) | inhibition of binding of 125I-labeled Col to S. aureus (S. aureus; peptide 10 μM) | effect of peptide on Col binding to S. aureus in presence of αCBD(151-297) IgG (αCBD(151-297) IgG [2]; 100 μg peptide, IgG 12 μg/ml) | neutralization of αCBD(151-297) IgG inhibitory activity (αCBD(151-297) IgG [2]; IgG 12 μg preincubated with single dose 100 μg peptide) | mice died/total ([3]; 100μg/mouse on days -31, -18, -7, 2.8×10^7 cfu/mouse i.v. day 0, end day 14) | protection against sepsis ([3]; in words) | percent of mice surviving [3, 5] | surviving mice/total mice [3, 5] | mortality [4] | anti-M55 IgG (Col MSCRAMM) titers (M55) |
| --- | --- | --- | --- | --- | --- | --- | --- | --- | --- | --- | --- | --- |
| CBD4: 25-amino-acid synthetic peptide, amino acids 209-233 (Asp209 to Tyr233) of S. aureus CBP (DQIQGGQQLDLSTLNINVTGTHSNY) | weakly | over 50% | inhibited in a dose-dependent manner | 76% | restored the level of Col binding to S. aureus observed in absence of αCBD(151-297) IgG | 68% | – | – | – | – | – | – |
| M55: recombinant His-tagged S. aureus Col-binding MSCRAMM derivative, amino acids 30-531 of full length CBP (SEQ ID NO:6) | – | – | – | – | – | – | 4/11 | highly effective in protecting against sepsis | Eighty-three | 35/42 | 50% | 32×10^9 units/ml |
